This note sets out measurements from article PMC9719519, “Non-classical ferroptosis inhibition by a small molecule targeting PHB2” (Nature Communications, 2022).

Common to all, as to assay: biochemical
What all share (design): Eurofins recombinant human kinase profiling, remaining kinase activity as % of control, 10 uM ATP
Settings in all cases: ATP 10 uM; read-out: %Ctrl@10 μM

One experiment addresses MAP4K3(h) (Homo sapiens, UniProt Q8IVH8). The essentials:
(§1)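 Recombinant human kinases, 401 in total, screened using an outsourced kinase profiling assay.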

The target of the next experiment is PAK5(h) (Homo sapiens, UniProt Q9P286). The essentials: as §1
Another experiment has as its target T1, Pim-3(h) (Homo sapiens, UniProt Q86V86).
T1 construct: gene PIM3
The essentials:
as §1

In a further experiment the target is T2, MLK3(h) (Homo sapiens, UniProt Q16584).
T2 construct: gene MAP3K11
The essentials: as §1

Another experiment deals with PAK6(h) (Homo sapiens, UniProt Q9NQU5). The essentials:
as §1

In the next experiment the target is T3, SAPK2a(T106M)(h) (Homo sapiens, UniProt Q16539, T106M).
T3 construct: gene MAPK14
The method, boiled down: as §1

Another experiment concerns the target LRRK2(h) (Homo sapiens, UniProt Q5S007). The method, boiled down:
as §1

The target in another experiment is T4, cKit(D816H)(h) (Homo sapiens, UniProt P10721, D816H).
T4 construct: gene KIT
The method, boiled down: as §1

Another experiment addresses Syk(h) (Homo sapiens, UniProt P43405). The method, boiled down: as §1
The next experiment deals with T5, TAK1(h) (Homo sapiens, UniProt O43318).
T5 construct: gene MAP3K7
The method, boiled down:
as §1

The target in another experiment is T6, CaMKIß(h) (Homo sapiens, UniProt Q6P2M8).
T6 construct: gene PNCK
The essentials:
as §1

The next experiment has as its target T7, IR(h), activated (Homo sapiens, UniProt P06213).
T7 construct: gene INSR
The essentials: as §1

The target in a further experiment is BTK(R28H)(h) (Homo sapiens, UniProt Q06187, R28H). The essentials:
as §1

For a further experiment, the target named is EphA2(h) (Homo sapiens, UniProt P29317). The method, boiled down: as §1
A further experiment addresses LIMK2(h) (Homo sapiens, UniProt P53671). The essentials: as §1
The target of a further experiment is T8, cKit(D816V)(h) (Homo sapiens, UniProt P10721, D816V).
T8 construct: gene KIT
The method, boiled down:
as §1

In a further experiment the target is T9, cKit(V654A)(h) (Homo sapiens, UniProt P10721, V654A).
T9 construct: gene KIT
The essentials: as §1

Another experiment addresses T10, CaMKIV(h) (Homo sapiens, UniProt Q16566).
T10 construct: gene CAMK4
The essentials:
as §1

The next experiment addresses T11, DCAMKL3(h) (Homo sapiens, UniProt Q9C098).
T11 construct: gene DCLK3
The essentials: as §1

The target in another experiment is CDKL4(h) (Homo sapiens, UniProt Q5MAI5). The essentials: as §1
A further experiment concerns the target MAP4K4(h) (Homo sapiens, UniProt O95819). The essentials:
as §1

The target in the next experiment is DAPK2(h) (Homo sapiens, UniProt Q9UIK4). The method, boiled down: as §1
Chain of DAPK2(h) (Q9UIK4 whole entry): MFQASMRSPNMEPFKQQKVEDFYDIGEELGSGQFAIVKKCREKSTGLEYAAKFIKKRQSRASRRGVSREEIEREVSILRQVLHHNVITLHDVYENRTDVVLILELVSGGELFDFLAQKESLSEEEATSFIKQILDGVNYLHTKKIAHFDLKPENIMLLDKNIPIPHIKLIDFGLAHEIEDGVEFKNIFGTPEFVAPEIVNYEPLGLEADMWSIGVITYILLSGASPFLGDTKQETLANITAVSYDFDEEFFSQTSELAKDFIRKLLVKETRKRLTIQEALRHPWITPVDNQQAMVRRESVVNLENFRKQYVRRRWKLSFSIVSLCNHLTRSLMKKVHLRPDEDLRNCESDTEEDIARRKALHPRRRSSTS

Chain of MAP4K3(h) (Q8IVH8 whole entry): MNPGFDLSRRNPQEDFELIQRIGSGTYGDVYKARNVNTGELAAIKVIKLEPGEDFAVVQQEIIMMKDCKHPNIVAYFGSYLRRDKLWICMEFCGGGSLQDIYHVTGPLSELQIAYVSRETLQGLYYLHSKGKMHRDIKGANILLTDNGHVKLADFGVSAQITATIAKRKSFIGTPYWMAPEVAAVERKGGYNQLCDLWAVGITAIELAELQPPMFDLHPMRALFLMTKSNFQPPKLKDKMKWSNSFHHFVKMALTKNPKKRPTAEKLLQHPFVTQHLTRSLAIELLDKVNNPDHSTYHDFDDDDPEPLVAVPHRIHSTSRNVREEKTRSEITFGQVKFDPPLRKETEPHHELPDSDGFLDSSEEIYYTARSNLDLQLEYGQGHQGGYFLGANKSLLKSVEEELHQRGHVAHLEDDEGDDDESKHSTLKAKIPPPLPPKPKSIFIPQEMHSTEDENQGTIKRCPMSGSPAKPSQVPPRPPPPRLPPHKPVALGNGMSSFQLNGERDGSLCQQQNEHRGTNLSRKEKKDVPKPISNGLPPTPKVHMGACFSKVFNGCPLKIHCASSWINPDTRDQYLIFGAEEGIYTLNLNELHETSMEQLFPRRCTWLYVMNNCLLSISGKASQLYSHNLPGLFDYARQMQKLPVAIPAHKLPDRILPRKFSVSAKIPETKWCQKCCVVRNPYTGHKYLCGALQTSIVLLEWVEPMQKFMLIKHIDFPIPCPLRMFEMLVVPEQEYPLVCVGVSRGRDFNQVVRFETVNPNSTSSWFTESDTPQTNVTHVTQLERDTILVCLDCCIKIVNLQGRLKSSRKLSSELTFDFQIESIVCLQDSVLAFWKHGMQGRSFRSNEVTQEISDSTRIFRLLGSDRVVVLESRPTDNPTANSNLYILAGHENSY
T8 sequence (P10721 whole entry D816V): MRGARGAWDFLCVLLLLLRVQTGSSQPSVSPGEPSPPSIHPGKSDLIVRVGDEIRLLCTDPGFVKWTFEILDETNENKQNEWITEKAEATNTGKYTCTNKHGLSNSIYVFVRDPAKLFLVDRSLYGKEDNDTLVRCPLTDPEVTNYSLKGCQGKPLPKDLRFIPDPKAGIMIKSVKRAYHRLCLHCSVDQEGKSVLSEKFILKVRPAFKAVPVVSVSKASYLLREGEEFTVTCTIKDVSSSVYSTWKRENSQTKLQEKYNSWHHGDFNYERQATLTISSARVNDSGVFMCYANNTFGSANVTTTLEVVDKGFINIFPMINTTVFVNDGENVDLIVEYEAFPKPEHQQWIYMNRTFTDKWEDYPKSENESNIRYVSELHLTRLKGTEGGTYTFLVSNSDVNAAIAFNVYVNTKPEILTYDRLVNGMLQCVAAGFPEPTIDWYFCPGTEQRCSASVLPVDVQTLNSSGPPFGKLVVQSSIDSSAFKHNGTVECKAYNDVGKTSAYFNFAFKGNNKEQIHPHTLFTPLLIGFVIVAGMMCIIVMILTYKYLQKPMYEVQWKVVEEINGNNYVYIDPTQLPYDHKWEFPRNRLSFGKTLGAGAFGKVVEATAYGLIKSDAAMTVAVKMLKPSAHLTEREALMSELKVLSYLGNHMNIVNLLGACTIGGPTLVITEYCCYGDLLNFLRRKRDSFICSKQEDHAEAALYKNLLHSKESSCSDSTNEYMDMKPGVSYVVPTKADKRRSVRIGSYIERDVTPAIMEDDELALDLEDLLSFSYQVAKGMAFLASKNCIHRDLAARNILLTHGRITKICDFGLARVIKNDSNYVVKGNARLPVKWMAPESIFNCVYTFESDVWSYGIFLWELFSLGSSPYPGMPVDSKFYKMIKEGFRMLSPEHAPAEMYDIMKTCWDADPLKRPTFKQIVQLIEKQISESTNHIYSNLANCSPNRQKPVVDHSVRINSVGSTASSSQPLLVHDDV
Chain of MAP4K4(h) (O95819 whole entry): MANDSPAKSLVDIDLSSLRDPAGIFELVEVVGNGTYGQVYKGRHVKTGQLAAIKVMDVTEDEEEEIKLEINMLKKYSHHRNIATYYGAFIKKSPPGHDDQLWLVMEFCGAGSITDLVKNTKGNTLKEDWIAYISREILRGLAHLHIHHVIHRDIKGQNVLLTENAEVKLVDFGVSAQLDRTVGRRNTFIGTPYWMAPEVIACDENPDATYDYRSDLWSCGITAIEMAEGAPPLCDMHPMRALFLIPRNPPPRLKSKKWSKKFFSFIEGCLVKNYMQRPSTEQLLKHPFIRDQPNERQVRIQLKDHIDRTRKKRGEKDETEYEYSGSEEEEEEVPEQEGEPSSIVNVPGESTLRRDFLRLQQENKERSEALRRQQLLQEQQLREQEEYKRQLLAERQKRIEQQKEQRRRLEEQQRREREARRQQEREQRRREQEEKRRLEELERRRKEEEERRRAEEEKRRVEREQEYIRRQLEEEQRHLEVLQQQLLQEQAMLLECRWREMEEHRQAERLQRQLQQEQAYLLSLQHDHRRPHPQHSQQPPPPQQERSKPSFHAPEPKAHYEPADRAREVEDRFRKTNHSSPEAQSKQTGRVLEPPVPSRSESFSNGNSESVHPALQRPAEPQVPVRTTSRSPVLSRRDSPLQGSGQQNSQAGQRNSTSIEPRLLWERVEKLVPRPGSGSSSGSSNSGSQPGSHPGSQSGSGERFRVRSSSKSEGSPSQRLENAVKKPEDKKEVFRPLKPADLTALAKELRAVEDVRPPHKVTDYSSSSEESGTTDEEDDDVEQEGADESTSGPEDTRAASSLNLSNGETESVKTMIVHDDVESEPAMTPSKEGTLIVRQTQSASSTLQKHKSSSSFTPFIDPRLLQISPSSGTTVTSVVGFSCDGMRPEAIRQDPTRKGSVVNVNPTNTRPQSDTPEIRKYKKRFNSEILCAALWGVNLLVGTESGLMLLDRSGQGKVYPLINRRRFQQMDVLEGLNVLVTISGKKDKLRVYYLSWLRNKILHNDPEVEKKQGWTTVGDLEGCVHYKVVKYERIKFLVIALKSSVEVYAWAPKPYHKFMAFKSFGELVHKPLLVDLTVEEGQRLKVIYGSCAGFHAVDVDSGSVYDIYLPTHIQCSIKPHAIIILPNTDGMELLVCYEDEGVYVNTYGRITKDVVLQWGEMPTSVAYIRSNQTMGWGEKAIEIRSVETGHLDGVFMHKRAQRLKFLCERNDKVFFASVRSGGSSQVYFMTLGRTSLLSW
Chain of BTK(R28H)(h) (Q06187 whole entry R28H): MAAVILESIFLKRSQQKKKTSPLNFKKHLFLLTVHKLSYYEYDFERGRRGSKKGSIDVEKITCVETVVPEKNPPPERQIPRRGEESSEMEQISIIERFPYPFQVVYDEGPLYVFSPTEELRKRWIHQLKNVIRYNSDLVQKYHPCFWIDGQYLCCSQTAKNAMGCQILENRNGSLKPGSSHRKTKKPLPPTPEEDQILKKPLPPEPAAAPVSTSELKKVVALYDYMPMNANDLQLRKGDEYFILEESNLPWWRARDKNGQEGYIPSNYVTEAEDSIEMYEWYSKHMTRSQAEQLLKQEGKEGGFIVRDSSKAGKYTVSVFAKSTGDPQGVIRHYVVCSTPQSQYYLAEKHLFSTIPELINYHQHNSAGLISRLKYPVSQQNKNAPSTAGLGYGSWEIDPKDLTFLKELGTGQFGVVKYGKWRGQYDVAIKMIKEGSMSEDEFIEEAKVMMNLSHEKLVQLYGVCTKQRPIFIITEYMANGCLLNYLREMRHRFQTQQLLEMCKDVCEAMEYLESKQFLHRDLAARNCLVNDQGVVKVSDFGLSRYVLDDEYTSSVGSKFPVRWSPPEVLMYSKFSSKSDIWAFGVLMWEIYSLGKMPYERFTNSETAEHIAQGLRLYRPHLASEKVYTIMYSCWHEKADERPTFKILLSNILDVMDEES
T10 sequence (Q16566 whole entry): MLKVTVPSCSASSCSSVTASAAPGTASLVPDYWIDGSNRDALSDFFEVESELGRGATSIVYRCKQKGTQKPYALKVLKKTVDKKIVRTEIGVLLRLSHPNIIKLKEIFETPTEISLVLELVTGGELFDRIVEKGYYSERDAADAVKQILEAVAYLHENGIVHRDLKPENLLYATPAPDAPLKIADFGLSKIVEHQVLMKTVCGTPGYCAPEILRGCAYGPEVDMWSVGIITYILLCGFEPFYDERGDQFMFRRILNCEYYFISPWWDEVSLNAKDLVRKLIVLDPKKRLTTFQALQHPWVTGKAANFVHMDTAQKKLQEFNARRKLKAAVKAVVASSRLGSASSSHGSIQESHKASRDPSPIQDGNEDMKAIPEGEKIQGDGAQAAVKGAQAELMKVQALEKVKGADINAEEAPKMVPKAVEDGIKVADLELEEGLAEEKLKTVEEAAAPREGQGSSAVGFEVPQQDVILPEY
T9 sequence (P10721 whole entry V654A): as the sequence (P10721 whole entry D816V) above, with V654A, V816D counted along it
T3 sequence (Q16539 whole entry T106M): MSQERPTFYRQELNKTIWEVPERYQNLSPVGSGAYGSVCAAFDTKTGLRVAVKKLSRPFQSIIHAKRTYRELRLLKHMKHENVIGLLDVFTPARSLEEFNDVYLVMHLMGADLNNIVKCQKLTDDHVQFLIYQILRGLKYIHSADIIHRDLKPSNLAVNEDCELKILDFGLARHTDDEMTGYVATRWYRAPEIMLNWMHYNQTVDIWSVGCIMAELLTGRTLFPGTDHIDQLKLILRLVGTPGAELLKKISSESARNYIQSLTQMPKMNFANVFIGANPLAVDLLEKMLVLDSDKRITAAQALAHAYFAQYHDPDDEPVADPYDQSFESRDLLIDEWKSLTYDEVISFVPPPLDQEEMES
T4 sequence (P10721 whole entry D816H): as the sequence (P10721 whole entry D816V) above, with V816H counted along it

As to `C1=C(c2nc(-c3cnn(C4CCNCC4)c3)cn3cc(-c4ccccc4)nc23)CCOC1` [YL-939], the remaining activity at 10 µM stood at 79% on MAP4K3(h); 95% at PAK5(h); 103% at Pim-3(h); 111% on MLK3(h); 65% at PAK6(h); 105% at SAPK2a(T106M)(h). Moreover, the remaining activity at 10 µM on LRRK2(h) is 103%; on cKit(D816H)(h), 90%; on Syk(h), 62%; at TAK1(h), 77%; at CaMKIß(h), 88%; on IR(h), activated it was 91%. In addition, the remaining activity at 10 µM on BTK(R28H)(h) was 107%; on EphA2(h) it was 82%; at LIMK2(h) it was 85%; at cKit(D816V)(h), 108%; on cKit(V654A)(h), 92%; at CaMKIV(h) it was 77%. For the same compound, the remaining activity at 10 µM at DCAMKL3(h) turned out to be 66%; at CDKL4(h), 76%; at MAP4K4(h) it was 86%; at DAPK2(h), 138%.
